This passage reports Ki results from BindingDB's records for doi:10.1158/1535-7163.MCT-05-0442 (Celera Genomics, 2006).

Histone deacetylase 1, sequence (Q13547 whole entry): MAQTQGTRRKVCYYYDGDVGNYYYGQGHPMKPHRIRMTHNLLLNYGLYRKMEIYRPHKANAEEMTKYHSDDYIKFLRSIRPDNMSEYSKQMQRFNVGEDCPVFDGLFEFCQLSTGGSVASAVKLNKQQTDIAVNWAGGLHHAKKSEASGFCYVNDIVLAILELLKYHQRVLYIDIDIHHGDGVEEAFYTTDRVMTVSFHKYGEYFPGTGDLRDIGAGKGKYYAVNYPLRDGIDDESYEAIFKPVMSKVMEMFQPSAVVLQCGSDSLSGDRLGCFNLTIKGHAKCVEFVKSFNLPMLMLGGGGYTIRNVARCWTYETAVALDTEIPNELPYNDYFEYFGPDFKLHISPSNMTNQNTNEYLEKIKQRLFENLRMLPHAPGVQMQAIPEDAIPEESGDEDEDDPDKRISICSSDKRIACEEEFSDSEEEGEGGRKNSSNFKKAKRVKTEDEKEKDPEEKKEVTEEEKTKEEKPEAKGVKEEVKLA

The assay concerns the target Histone deacetylase 1 (Homo sapiens, UniProt Q13547). Description: HDAC Inhibition Assay. As to conditions: pH 7.4; 22 °C. The protocol: HDAC activity was measured using a continuous trypsin-coupled assay. For inhibitor characterization, measurements were done using 96-well assay plates. Enzyme was mixed with inhibitor at various concentrations and allowed to incubate for 15 minutes. […] Reactions were monitored in a fluorescence plate reader. […] The increase in fluorescence with time was used as the measure of the reaction rate. Inhibition constants Ki(app) were obtained using the program BatchKi.
In turn, `O=C(NO)c1ccc(OCCNC(=O)c2cc3ccccc3o2)cc1` [N-{2-[4-(hydroxycarbamoyl)phenoxy]ethyl}-1-benzofuran-2-carboxamide] registered a Ki of 4 nM. That is a single-digit nanomolar value. In turn, `O=C(NO)c1ccc(OCCNC(=O)c2ccccc2)cc1` [N-hydroxy-4-[2-(phenylformamido)ethoxy]benzamide] yielded a Ki of 43 nM.

`O=C(NO)c1ccc(OCCNC(=O)c2ccc3ccccc3c2)cc1` [N-{2-[4-(hydroxycarbamoyl)phenoxy]ethyl}naphthalene-2-carboxamide]: the Ki stood at 6 nM. As for `CN(C)Cc1c(C(=O)NCCOc2ccc(C(=O)O)cc2)oc2ccccc12` [4-[2-({3-[(dimethylamino)methyl]-1-benzofuran-2-yl}formamido)ethoxy]benzoic acid], the figure is greater than 50000 nM.

The Ki is the equilibrium dissociation constant of an inhibitor or competing ligand from its target.
